Test system: patients with advanced solid tumours
Test: Phase I toxicity assessment (NCI-CTC version 2.0), oral XR11576 days 1–5 every 21 days
Assay type: in vivo
Method: The total dose prescribed was rounded to the nearest 5 mg. […] Dose escalations between cohorts were based on the prior dose level's toxicity and pharmacological data, allowing a dose escalation up to 100% (which was determined by the worst significant toxicity). […] The stopping dose was defined as the dose level that induced dose-limiting toxicity (DLT) during course 1 in ⩾2/3 or ⩾2/6 patients. Dose-limiting toxicities were defined as grade 4 granulocytopenia for 7 or more days, febrile neutropenia, platelets <25.0 × 10^9 l^−1 and/or nonhaematological toxicity ⩾grade 3. Nausea and vomiting subsequently responding to antiemetic therapy were excluded from DLT. […] If a patient encountered DLT, the dose of XR11576 was decreased by one dose level at re-treatment. […] At the dose recommended for further studies, the number of patients treated could be expanded to 12. Toxicities were evaluated according to the National Cancer Institute Common Toxicity Criteria, version 2.0 (ctep.info.nih.gov/reporting/in dex.html).
Before treatment, a complete medical history was recorded and a physical examination performed. A complete blood count (CBC) including white blood cell differential and serum biochemistry, which involved sodium, potassium, calcium, urea, creatinine, uric acid, total protein, albumin, total bilirubin, alkaline phosphatase, γ-glutamyl transferase, aspartate aminotransferase, alanine aminotransferase, lactate dehydrogenase and glucose, were performed, as were urinalysis, pregnancy test, relevant tumour markers, electrocardiogram and a chest X-ray. […] Weekly evaluations included history, physical examination, toxicity assessment according to the CTC criteria version 2.0, and serum chemistries. Complete blood count was determined twice weekly. Tumour evaluation was performed after every two courses according to the Response Evaluation Criteria in Solid Tumours (RECIST) ([Therasse et al, 2000]). Patients were taken off protocol at the onset of disease progression.

[1] = orally on days 1–5 every 3 weeks

COc1cccc2c1ccc1nc3cccc(C(=O)N[C@H](C)CN(C)C)c3nc12 [XR11576, 4-methoxy-benzo[a]phenazine-11-carboxylic acid (2-dimethulamino-1-R-methyl-ethyl)-amide]
1 to 14 days: diarrhoea, range of duration (all dose levels)
1: Diarrhoea grade 1, worse toxicity per cycle (30 mg day^−1, all cycles) | Fatigue grade 1, worse toxicity per cycle (30 mg day^−1, all cycles) | Fatigue grade 1, no. of patients (30 mg day^−1, first cycle) | Fatigue grade 2, no. of patients (30 mg day^−1, first cycle) | Diarrhoea grade 1, worse toxicity per cycle (60 mg day^−1, all cycles) | Diarrhoea grade 1, no. of patients (60 mg day^−1, first cycle) | Fatigue grade 1, no. of patients (60 mg day^−1, first cycle) | Fatigue grade 3, no. of patients (60 mg day^−1, first cycle) | Diarrhoea grade 3, worse toxicity per cycle (120 mg day^−1, all cycles) | Fatigue grade 3, worse toxicity per cycle (120 mg day^−1, all cycles) | Plt grade 1, worse toxicity per cycle (120 mg day^−1, all cycles) | DLT, no. of patients (120 mg day^−1, first cycle) | Diarrhoea grade 1, no. of patients (120 mg day^−1, first cycle) | Diarrhoea grade 3, no. of patients (120 mg day^−1, first cycle) | Vomiting grade 1, no. of patients (120 mg day^−1, first cycle) | WBC grade 1, no. of patients (120 mg day^−1, first cycle) | ANC grade 4, worse toxicity per cycle (150 mg day^−1, all cycles) | Diarrhoea grade 1, worse toxicity per cycle (150 mg day^−1, all cycles) | Diarrhoea grade 2, worse toxicity per cycle (150 mg day^−1, all cycles) | Diarrhoea grade 3, worse toxicity per cycle (150 mg day^−1, all cycles) | Plt grade 1, worse toxicity per cycle (150 mg day^−1, all cycles) | Vomiting grade 1, worse toxicity per cycle (150 mg day^−1, all cycles) | WBC grade 2, worse toxicity per cycle (150 mg day^−1, all cycles) | ANC grade 4, no. of patients (150 mg day^−1, first cycle) | DLT, no. of patients (150 mg day^−1, first cycle) | Diarrhoea grade 1, no. of patients (150 mg day^−1, first cycle) | Diarrhoea grade 2, no. of patients (150 mg day^−1, first cycle) | Diarrhoea grade 3, no. of patients (150 mg day^−1, first cycle) | Nausea grade 1, no. of patients (150 mg day^−1, first cycle) | Plt grade 1, no. of patients (150 mg day^−1, first cycle) | WBC grade 2, no. of patients (150 mg day^−1, first cycle) | ANC grade 3, worse toxicity per cycle (180 mg day^−1, all cycles) | Diarrhoea grade 1, worse toxicity per cycle (180 mg day^−1, all cycles) | Diarrhoea grade 2, worse toxicity per cycle (180 mg day^−1, all cycles) | Diarrhoea grade 4, worse toxicity per cycle (180 mg day^−1, all cycles) | Fatigue grade 1, worse toxicity per cycle (180 mg day^−1, all cycles) | Fatigue grade 2, worse toxicity per cycle (180 mg day^−1, all cycles) | Nausea grade 2, worse toxicity per cycle (180 mg day^−1, all cycles) | Nausea grade 3, worse toxicity per cycle (180 mg day^−1, all cycles) | ANC grade 3, no. of patients (180 mg day^−1, first cycle) | DLT, no. of patients (180 mg day^−1, first cycle) | Diarrhoea grade 1, no. of patients (180 mg day^−1, first cycle) | Diarrhoea grade 2, no. of patients (180 mg day^−1, first cycle) | Fatigue grade 1, no. of patients (180 mg day^−1, first cycle) | Fatigue grade 2, no. of patients (180 mg day^−1, first cycle) | Fatigue grade 3, no. of patients (180 mg day^−1, first cycle)
seven patients: patients with grade 1 anaemia (all dose levels)
180 mg/day: maximum tolerated dose (MTD) [1]
three patients: patients with thrombocytopenia (limited to grade 1 and 2)
four patients: patients with grade 2 anaemia (all dose levels)
6 days: nausea and vomiting, median duration (dose level 180 mg)
5: Fatigue grade 1, worse toxicity per cycle (120 mg day^−1, all cycles) | Fatigue grade 2, worse toxicity per cycle (120 mg day^−1, all cycles) | Vomiting grade 2, worse toxicity per cycle (120 mg day^−1, all cycles) | Nausea grade 1, no. of patients (120 mg day^−1, first cycle) | Vomiting grade 2, worse toxicity per cycle (180 mg day^−1, all cycles)
diarrhoea and fatigue: dose-limiting toxicities (DLT) [1]
No significant abnormalities: abnormalities in ECG tracings (prior to treatment and following first drug administration)
3: Nausea grade 1, worse toxicity per cycle (30 mg day^−1, all cycles) | Vomiting grade 1, worse toxicity per cycle (30 mg day^−1, all cycles) | Nausea grade 1, no. of patients (60 mg day^−1, first cycle) | Diarrhoea grade 1, worse toxicity per cycle (120 mg day^−1, all cycles) | Diarrhoea grade 2, worse toxicity per cycle (120 mg day^−1, all cycles) | Vomiting grade 1, worse toxicity per cycle (120 mg day^−1, all cycles) | Fatigue grade 1, no. of patients (120 mg day^−1, first cycle) | Fatigue grade 2, no. of patients (120 mg day^−1, first cycle) | Nausea grade 2, no. of patients (120 mg day^−1, first cycle) | Vomiting grade 2, worse toxicity per cycle (150 mg day^−1, all cycles) | Fatigue grade 2, no. of patients (150 mg day^−1, first cycle) | Vomiting grade 2, no. of patients (150 mg day^−1, first cycle) | Nausea grade 1, worse toxicity per cycle (180 mg day^−1, all cycles) | Nausea grade 1, no. of patients (180 mg day^−1, first cycle) | Vomiting grade 2, no. of patients (180 mg day^−1, first cycle)
6: Nausea grade 1, worse toxicity per cycle (60 mg day^−1, all cycles)
4: Vomiting grade 1, worse toxicity per cycle (60 mg day^−1, all cycles) | Fatigue grade 2, worse toxicity per cycle (150 mg day^−1, all cycles)
26%: diarrhoea grade 1–2, share of cycles (all cycles)
6%: diarrhoea grade 3–4, share of cycles (all cycles)
7: Nausea grade 2, worse toxicity per cycle (120 mg day^−1, all cycles)
mild: overall haematological toxicity (all dose levels)
1 to 15 days: diarrhoea, range of day of onset (all dose levels)
1 to 20 days: nausea and vomiting, range of duration (dose level 180 mg)
2 days: nausea and vomiting, median duration (30 mg)
one patient: patients who developed grade 1 alopecia (during treatment) | patients with grade 4 neutropenia (heavily pretreated patient, not complicated by fever)
5 days: diarrhoea, median day of onset (all dose levels)
8: Nausea grade 1, worse toxicity per cycle (120 mg day^−1, all cycles)
4 days: diarrhoea, median duration (all dose levels)
No treatment-related deaths: treatment-related deaths (in vivo)
two of three patients: patients in whom DLT was encountered (180 mg day^−1 dose level)
2: Fatigue grade 2, worse toxicity per cycle (30 mg day^−1, all cycles) | Nausea grade 2, worse toxicity per cycle (30 mg day^−1, all cycles) | Nausea grade 1, no. of patients (30 mg day^−1, first cycle) | Fatigue grade 1, worse toxicity per cycle (60 mg day^−1, all cycles) | Fatigue grade 2, worse toxicity per cycle (60 mg day^−1, all cycles) | Fatigue grade 3, worse toxicity per cycle (60 mg day^−1, all cycles) | Vomiting grade 1, no. of patients (60 mg day^−1, first cycle) | Vomiting grade 3, worse toxicity per cycle (120 mg day^−1, all cycles) | WBC grade 1, worse toxicity per cycle (120 mg day^−1, all cycles) | Diarrhoea grade 2, no. of patients (120 mg day^−1, first cycle) | Vomiting grade 2, no. of patients (120 mg day^−1, first cycle) | Vomiting grade 3, no. of patients (120 mg day^−1, first cycle) | Nausea grade 1, worse toxicity per cycle (150 mg day^−1, all cycles) | Nausea grade 2, worse toxicity per cycle (150 mg day^−1, all cycles) | Nausea grade 2, no. of patients (150 mg day^−1, first cycle) | Fatigue grade 3, worse toxicity per cycle (180 mg day^−1, all cycles) | Plt grade 1, worse toxicity per cycle (180 mg day^−1, all cycles) | Plt grade 1, no. of patients (180 mg day^−1, first cycle)
120 mg/day: recommended dose for further studies (days 1–5 every 3 weeks)
1 to 5 days: nausea and vomiting, range of duration (30 mg)
